Paper PMC13379085 (PLOS Neglected Tropical Diseases, 2026)

Assays:
lysozyme = molecular target: T1, lysozyme (Homo sapiens, UniProt P61626); test: Fluorometric lysozyme activity assay; assay type: biochemical; parameters: purchased Sigma L1667; details: lysozyme 1mg/mL; 0, 1, and 50 µM 197
T1 sequence (P61626 19-148): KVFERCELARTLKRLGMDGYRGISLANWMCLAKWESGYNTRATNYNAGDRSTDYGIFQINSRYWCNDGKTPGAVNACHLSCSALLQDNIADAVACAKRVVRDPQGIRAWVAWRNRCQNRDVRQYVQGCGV
Experimental: Recombinant human lysozyme protein (1mg/mL, Sigma, Cat # L1667) was incubated with 0 µM, 1 µM or 50 µM 197. Lysozyme activity was measured via a fluorometric assay (Abcam, Cat # ab211113) according to manufacturer’s protocol.

LV82 L. donovani = test: Giemsa staining of intracellular L. donovani in BMDMs from wildtype C57BL/6 or lysozyme knockout mice; assay type: cell-based, Leishmania donovani; details: 72-hour incubation
Source text: B6.129P2-Lyz2^tm1(cre)Ifo/J mice (stock #004781, herein termed ‘Lys K/O’) were obtained from Jackson Laboratory. This strain has a nuclear-localized Cre recombinase inserted into the first coding ATG of the lysozyme 2 gene (Lyz2) which eliminates endogenous Lyz2 gene function. Wildtype C57BL6/J mice (stock #000664) were obtained as a control.
Bone marrow derived macrophages (BMDMs) were isolated from both mice and cultured as described above in “Image-based Evaluation of Intracellular Anti-Leishmanial Activity”. BMDMs were seeded onto glass cover slips, infected with LV82 L. donovani at a multiplicity of infection of 1:10. Cells were washed to remove extracellular promastigotes and treated with compounds (197, amphotericin B) for a 72-hour incubation. BMDM cells were then washed with phosphate buffered saline, fixed with ice-cold methanol, and stained with Giemsa (5% v/v in water). The cover slips with stained cells are mounted onto glass slides and imaged on EVOS XL (100X, Thermo Fisher Scientific). Leishmania amastigotes per 100 macrophages were determined in a blinded manner.

[1] = tested on: Extracellular L. donovani promastigotes; test: Resazurin viability assay of extracellular L. donovani promastigotes; assay type: cell-based, Leishmania donovani; details: for 53 strain not specified
Experimental: The effect of compounds on extracellular promastigotes was evaluated using a resazurin-based assay as described previously. In short, late log phase Leishmania promastigotes were seeded in a 96 well plate at 1 x 10^5 parasites per well and treated with drugs (0.5 – 200 µM) for 72 hours at 25°C. Ten microliters of Resazurin (0.02% w/v) were added to the treated parasites to achieve a final concentration of 0.002% w/v and incubated for 24 hours. Viability of the promastigotes was assessed by fluorescence (excitation 544 nm, emission 590 nm, SpectraMax M2, Molecular Devices).

[2] = tested on: Intracellular L. donovani amastigotes; test: Luminescence-based assay of intracellular L. donovani burden in THP-1 macrophages; assay type: cell-based, Leishmania donovani
Experimental: Luminescent strains, L. donovani LV82 expressing firefly luciferase (a kind gift from Dr. Abhay Satoskar, Ohio State University) and L. mexicana (NR-51210, ATCC) expressing renilla luciferase were used to evaluate the effect of the compounds in intracellular and extracellular conditions. Wild-type L. donovani LV82 (ATCC) were used for Giemsa staining based experiments. All parasites were cultured at 25°C and 5% CO2 in M199 media (Corning) supplemented with 10% FBS, 1% Penicillin/Streptomycin, and Hemin (0.01 mg/mL), and used in experiments up to passage 15.
THP-1 cells were seeded in a 96 well plate (25,000 cells/well) overnight then differentiated with 150 nM phorbol 12-myristate 13-acetate (PMA) over 72 hours (S1 Fig). […] Briefly, promastigotes of a known cell density were resuspended in RPMI media (with 10% FBS, 1% P/S and 0.05 mM β-mercaptoethanol) and incubated with adhered THP-1 cells over 18 hours. After infection, cells were washed three times with fresh media to remove extracellular promastigotes.
Infected macrophages were then treated with compounds solubilized in DMSO ranging from 0.1-10 µM in concentrations. After 72 hours of treatment, the viability of the amastigotes within macrophages was determined using Promega firefly luminescence assay (Cat E1500) or Pierce Renilla luciferase assay (Cat 16166) for L. donovani and L. mexicana strains, respectively. Briefly, media was removed, and cells were lysed with the assay lysis buffer. The luciferase substrate was then incubated with the lysed cells for 10 min at room temperature and luminescence of live Leishmania was measured in a white opaque 96 well plate using a Biotek plate reader.

Structure (SMILES): O=C(CNCc1cccc(F)c1)Nc1ccc(-n2cc(C(F)(F)F)nc2-c2ccc(-c3ccc(C(F)(F)F)cc3)cc2)cc1 [Compound 197]
- lysozyme activity (lysozyme): dose-dependent increase
- anti-leishmanial activity in WT and Lys K/O BMDMs (LV82 L. donovani): notably decreased in Lys K/O BMDMs
- direct effects on extracellular promastigote viability [1]: some direct reduction
- Selectivity 24h LC50/ Lum IC50 ([2]; host-directed effect vs cytotoxicity in THP-1): >20.6
- intracellular activity (primary screen) ([2]; imidazole series): retaining potent intracellular activity
